Counter-ions that a name gives are not always drawn. Like-named read-outs stand apart in the source and are kept apart here.
Columns and labels:
[1] = Compound induced cytotoxicity in HCV replicon cell lines (WST-1 reagent); type: cell-based; details: human, 1b (con1) HCV replicon cells
Experimental: Test compounds were solubilised to 4 mM in 100% DMSO. Dilutions were made to the desired starting concentration in 100% DMSO and then 1 in 3 dilutions made, again in 100% DMSO. 0.5 μl of each sample was added to 384-well assay plates. White Lumitrac (Greiner) plates were used for the 1a and 1b replicon assays and black, clear bottomed (Greiner) plates were used for the WST-1 cytotoxity assay.
1b (con1) replicon cells were resuspended to a concentration of 1.4×10^5 cells/ml by addition of pre-warmed medium (DMEM+10% FCS). 50 μl of this suspension was added to each well of a 384-well assay plate (Black, clear bottomed, Greiner) already containing 0.5 μl of test compound.
All plates were covered with gas permeable seals and incubated at 37° C., 5% CO2 for 48 hours. After 48 hours, 5 μl WST-1 reagent (Roche, 11 644 807 001) was added to each well and the plate returned to the incubator for 3 hours. After this incubation period absorbance was read at 450 nm on an EnVision (Perkin Elmer) plate reader. The half maximal cytotoxic concentration (CC50) values were calculated for each compound by constructing log concentration-response curves.
All of the exemplified compounds have been screened in a cell proliferation assay (WST-1). A majority have […] in at least 2 independent experiments, the exceptions being the compounds of examples 1, 10, 12, 23, 25, 37, 47, 48, 49, 52, 56, 57, 58, 60, 67, 68, 69, 70, 71, 72, 73, 74, 79, 81 and 84 which have CC50 values>2 μM in 1 experiment, and example 20 where the CC50 is reported as >10 nM (in this instance the top concentration tested in the assay was 10 nM).

1b (con1) replicon cells = experiment: HCV 1b replicon inhibitory activity (luciferase, Britelite Plus); type: cell-based, hepatitis C virus; details: read-out: IC50 value (95% Confidence Intervals) pM Replicon 1B assay
Summary of the method: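 1b (con1) luciferase replicon cells in DMEM + 10% FCS were exposed to 1-in-3 DMSO compound dilutions for 48 h at 37° C, 5% CO2. Luminescence was read 1-15 min after Britelite Plus addition; EC50 came from log concentration-response curves.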

1a-H77 replicon cells = experiment: HCV 1a replicon inhibitory activity (Renilla luciferase); type: cell-based, hepatitis C virus; details: read-out: IC50 value (95% Confidence Intervals) pM Replicon 1A assay
Summary of the method: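 Replicon cells in DMEM + 10% FCS incubated 48 hours at 37° C., 5% CO2 with 1-in-3 serial dilutions of compound prepared in DMSO. Replication read as Renilla luciferase luminescence after lysis. EC50 taken from log concentration-response curves.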

[2] = WST-1, 48 hours, in 1 experiment
[3] = Hepatitis C virus, geometric mean, 95% confidence intervals in parentheses, 48 hours, medium with 10% FCS
[4] = geometric mean, 95% confidence intervals in parentheses, 48 hours, medium with 10% FCS

Molecule	CC50 at 48 h [1, 2]	IC50 (1b (con1) replicon cells; [3])	IC50 (1a-H77 replicon cells; [3])	IC50 (1b (con1) replicon cells; Hepatitis C virus, 48 h)	IC50 (1a-H77 replicon cells; Hepatitis C virus, 48 h)	other results
COC(=O)N[C@H](C(=O)N1CCC[C@H]1c1ncc(-c2ccc(-c3ccc4cc(-c5cnc([C@@H]6CCCN6C(=O)[C@@H](NC(=O)OC)C(C)C)[nH]5)cnc4c3)nc2)[nH]1)C(C)C [Example 10, Methyl {(2S)-1-[(2S)-2-{5-[6-(3-{2-[(2S)-1-{(2S)-2-[(methoxycarbonyl)amino]-3-methyl-butanoyl}pyrrolidin-2-yl]-1H-imidazol-5-yl}quinolin-7-yl)pyridin-3-yl]-1H-imidazol-2-yl}pyrrolidin-1-yl]-3-methyl-1-oxobutan-2-yl}carbamate]	> 2000 nM	49.4 pM	1320 pM	–	–	–
CC[C@H](NC(=O)OC)C(=O)N1CCC[C@H]1c1nc(-c2ccc(-c3cnc4cc(-c5cnc([C@@H]6CCCN6C(=O)[C@H](CC)NC(=O)OC)[nH]5)cnc4c3)cc2)c[nH]1 [Example 12, Methyl {(2S)-1-[(2S)-2-{4-[4-(7-{2-[(2S)-1-{(2S)-2-[(methoxycarbonyl)amino]butanoyl}pyrrolidin-2-yl]-1H-imidazol-5-yl}-1,5-naphthyridin-3-yl)phenyl]-1H-imidazol-2-yl}pyrrolidin-1-yl]-1-oxobutan-2-yl}carbamate]	> 2000 nM	358 pM	3100 pM	–	–	–
COC(=O)N[C@H](C(=O)N1CCC[C@H]1c1ncc(-c2ccc(-c3ncc4cc(-c5cnc([C@@H]6CCCN6C(=O)[C@@H](NC(=O)OC)C(C)C)[nH]5)ccc4n3)nc2)[nH]1)C(C)C [Example 20, Methyl {(2S)-1-[(2S)-2-{5-[2-(5-{2-[(2S)-1-{(2S)-2-[(methoxycarbonyl)amino]-3-methylbutanoyl}pyrrolidin-2-yl]-1H-imidazol-5-yl}pyridin-2-yl)quinazolin-6-yl]-1H-imidazol-2-yl}pyrrolidin-1-yl]-3-methyl-1-oxobutan-2-yl}carbamate]	–	127 pM	1720 pM	–	–	CC50 at 48 h ([1]; WST-1, top concentration tested in the assay was 10 nM): > 10 nM
COC(=O)N[C@H](C(=O)N1CCC[C@H]1c1nc(-c2ccc3nc(-c4ccc(-c5cnc([C@@H]6CCCN6C(=O)[C@@H](NC(=O)OC)C(C)C)[nH]5)cc4)cc(C#N)c3c2)c[nH]1)C(C)C [Example 23, Methyl {(2S)-1-[(2S)-2-{5-[4-(4-cyano-6-{2-[(2S)-1-{(2S)-2-[(methoxycarbonyl)amino]-3-methylbutanoyl}pyrrolidin-2-yl]-1H-imidazol-4-yl}quinolin-2-yl)phenyl]-1H-imidazol-2-yl}pyrrolidin-1-yl]-3-methyl-1-oxobutan-2-yl}carbamate]	> 2000 nM	58.4 pM	5450 pM	–	–	–
CC[C@H](NC(=O)OC)C(=O)N1CCC[C@H]1c1ncc(-c2ccc(-c3ccc4cc(-c5cnc([C@@H]6CCCN6C(=O)[C@H](CC)NC(=O)OC)[nH]5)ccc4c3)cc2)[nH]1 [Example 25, Methyl {(2S)-1-[(2S)-2-{5-[4-(6-{2-[(2S)-1-{(2S)-2-[(methoxycarbonyl)amino]butanoyl}pyrrolidin-2-yl]-1H-imidazol-5-yl}naphthalen-2-yl)phenyl]-1H-imidazol-2-yl}pyrrolidin-1-yl]-1-oxobutan-2-yl}carbamate]	> 2000 nM	10.8 pM	88.8 pM	–	–	–
CCC[C@H](NC(C)=O)C(=O)N1CCC[C@H]1c1ncc(-c2ccc3nc(-c4ccc(-c5c[nH]c([C@@H]6CCCN6C(=O)[C@@H](NC(=O)OC)C(C)C)n5)cc4)cnc3c2)[nH]1 [Example 37, Methyl {(2S)-1-[(2S)-2-{4-{4-[6-(2-{(2S)-1-(N-acetyl-L-norvalyl)pyrrolidin-2-yl]-1H-imidazol-5-yl)quinoxalin-2-yl)phenyl]-1H-imidazol-2-yl}pyrrolidin-1-yl]-3-methyl-1-oxobutan-2-yl}carbamate trifluoroacetic acid salt]	> 2000 nM	–	–	42.9 pM	284 pM	–
COC(=O)N[C@H](C(=O)N1CCC[C@H]1c1nc(-c2ccc(-c3cnc4cc(-c5cnc([C@@H]6CCCN6C(=O)[C@H](Cc6ccccc6)NC(C)=O)[nH]5)ccc4n3)cc2)c[nH]1)C(C)C [Example 47, Methyl {(2S)-1-[(2S)-2-{4-[4-(6-{2-[(2S)-1-(N-acetyl-L-phenylalanyl)pyrrolidin-2-yl]-1H-imidazol-5-yl}quinoxalin-2-yl)phenyl]-1H-imidazol-2-yl}pyrrolidin-1-yl]-3-methyl-1-oxobutan-2-yl}carbamate trifluoroacetic acid salt]	> 2000 nM	–	–	52.8 pM	6850 pM	–
COC(=O)N[C@@H](Cc1ccccc1)C(=O)N1CCC[C@H]1c1ncc(-c2ccc3nc(-c4ccc(-c5c[nH]c([C@@H]6CCCN6C(=O)[C@@H](NC(=O)OC)C(C)C)n5)cc4)cnc3c2)[nH]1 [Example 49, Methyl {(2S)-1-[(2S)-2-{5-[2-(4-{2-[(2S)-1-{(2S)-2-[(methoxycarbonyl)amino]-3-methylbutanoyl}pyrrolidin-2-yl]-1H-imidazol-4-yl}phenyl)quinoxalin-6-yl]-1H-imidazol-2-yl}pyrrolidin-1-yl]-1-oxo-3-phenylpropan-2-yl}carbamate trifluoroacetic acid salt]	> 2000 nM	–	–	7.27 pM	73 pM	–
COC(=O)N[C@@H](CC1CCCCC1)C(=O)N1CCC[C@H]1c1ncc(-c2ccc3nc(-c4ccc(-c5c[nH]c([C@@H]6CCCN6C(=O)[C@@H](NC(=O)OC)C(C)C)n5)cc4)cnc3c2)[nH]1 [Example 80, Methyl {(2S)-1-[(2S)-2-(4-{4-[6-(2-{(2S)-1-[3-cyclohexyl-N-(methoxycarbonyl)alanyl]pyrrolidin-2-yl}-1H-imidazol-5-yl)quinoxalin-2-yl]phenyl}-1H-imidazol-2-yl)pyrrolidin-1-yl]-3-methyl-1-oxobutan-2-yl} carbamate]	–	–	–	–	–	IC50 (1b (con1) replicon cells; [4]): 11.4 pM; IC50 (1a-H77 replicon cells; [4]): 117 pM
COC(=O)N[C@H](C(=O)N1CCC[C@H]1c1nc(-c2ccc(-c3cnc4cc(-c5cnc([C@@H]6CCCN6C(=O)[C@@H](Cc6c[nH]c7ccccc67)NC(=O)OC)[nH]5)ccc4n3)cc2)c[nH]1)C(C)C [Example 82, Methyl {(2S)-1-[(2S)-2-{4-[4-(6-{2-[(2S)-1-{(2R)-3-(1H-indol-3-yl)-2-[(methoxycarbonyl)amino]propanoyl}pyrrolidin-2-yl]-1H-imidazol-5-yl}quinoxalin-2-yl)phenyl]-1H-imidazol-2-yl}pyrrolidin-1-yl]-3-methyl-1-oxobutan-2-yl}carbamate trifluoroacetic acid salt]	–	–	–	190 pM	490 pM	–
COC(=O)N[C@H](C(=O)N1CCC[C@H]1c1nc(-c2ccc(-c3cnc4cc(-c5cnc([C@@H]6CCCN6C(=O)[C@@H](Cc6ccccn6)NC(=O)OC)[nH]5)ccc4n3)cc2)c[nH]1)C(C)C [Example 83, Methyl {(2S)-1-[(2S)-2-(4-{4-[6-(2-{(2S)-1-[(2R)-2-[(methoxycarbonyl)amino]-3-(pyridin-2-yl)propanoyl]pyrrolidin-2-yl}-1H-imidazol-5-yl)quinoxalin-2-yl]phenyl}-1H-imidazol-2-yl)pyrrolidin-1-yl]-3-methyl-1-oxobutan-2-yl}carbamate trifluoroacetic acid salt]	–	–	–	53.4 pM	1030 pM	–
Methyl {(2S)-1-[(2S)-2-{4-[4-(6-{2-[(2S)- 1-{(2S)-3-tert-butoxy-2-[(methoxy carbonyl)amino]propanoyl}pyrrolidin-2- yl]-1H-imidazol-5-yl}quinoxalin-2-yl) phenyl]-1H-imidazol-2-yl}pyrrolidin-1-yl]- 3-methyl-1-oxobutan-2-yl}carbamate trifluoroacetic acid salt [Example 81]	–	–	–	–	–	IC50 (1b (con1) replicon cells; [4]): 13.7 pM; IC50 (1a-H77 replicon cells; [4]): 44 pM
